Reference: patent US5614548A, “Quaternary amine containing ether or ester lipid derivatives and therapeutic compositions” (priority 1994, dated 1997)
“And” between values parts separate entries of the source, which are not always exact repeats. Equal entries are not always repeated. Where two headings read alike, the source gives them in different places.

Experiments:
[1] = test system: HL60 human leukemia cell line; experiment: HL60 cell growth inhibition (trypan blue, 48 h); format: cell-based; conditions: for IC50: HL60, 48 hours
Description: A number of the compounds disclosed herein have been tested against the HL60 human leukemia cell line to assess their cytotoxic potential. These analogs were investigated in parallel with ET-18-OMe which was used as the reference compound. The methodologies used in this investigation were the same as described in A. Noseda, M. Berens, C. Piantadosi, and E. J. Modest, Lipids 22, 878-883, 1987. In brief, HL60 cells at a concentration of […] were incubated in wells with one milliliter medium with the experimental drug in parallel with the same concentration of cells with ET-18-OMe (standard) or EtOH (control). After 48 hours of incubation the cells were counted using the trypan blue dye exclusion technique to determine the effect of the drug on cell growth. The experimental drug and ET-18-OMe were tested at the same concentrations, e.g., 10, 5, 2.5 and 1.25 μM.

[2] = test system: HIV-1; experiment: Infectious HIV-1 multiplication (plaque forming units); format: cell-based, human immunodeficiency virus type 1 (HIV-1); conditions: for infectious virus production: in words; for activity at 0.2 µM / activity at 0.4 µM / activity at 2 µM: read-out: Plaque Forming Units, % of Control
Description: (§1) In brief, CEM-SS cells were infected with HIV-1. At various times after infection (3, 6, 8, 10, 13 days) the overlay fluids were replaced with fresh medium. Overlay fluids replaced on days 8, 10 and 13 were saved at -80° C. to measure HIV-1 plaque forming units according to our described protocol above and RT activity (described by Poiesz et al., Proc. Natl. Acad. Sci. U.S.A. 77, 7415 (1980). Results are given in Table 8 below.

[3] = test system: HIV-1; experiment: HIV-1 plaque assay, inhibitor added 30 minutes before infection; format: cell-based, human immunodeficiency virus type 1 (HIV-1)
From the text: (§2) Dextran sulfate was used as a positive control. […] Plaques were counted at five days after infection.
(§3) By way of further background, in our assay HIV-1 syncytial plaques are seen as large, multicellular foci (10 to 25 nuclei/syncytium) that appear either brown and granular or clear. Since the number of HIV-1 syncytial plaques correlates with reverse transcriptase (RT) and p24 core antigen activity in the HIV-1 infected cell overlay fluids, the syncytial plaque assay can be used to quantify the amount of infectious virus. Reverse transcriptase activity was assayed according to a described procedure (B. J. Poeisz et al., Proc. Natl. Acad. Sci. (U.S.A.) […], 7415 (1980)). The activity of p24 core antigen induced by HIV-1 infection of CEM-SS cells was measured spectrophotometrically using the commercial Abbott EIA.
(§4) Compound E inhibited HIV-1 plaque count 43%, 83%, and 91% at concentrations of 0.2, 0.4, and 2.0 μM, respectively, compared to untreated controls. […] In other experiments addition of 0.2, 0.4 and 2.0 μM Compound E starting sixty minutes after HIV-1 infection inhibited HIV-1 plaque formation 28%, 59% and 97% respectively, compared to untreated controls.

[4] = test system: CEM-SS cells; experiment: CEM-SS cell growth (3H-TdR uptake); format: cell-based; conditions: Homo sapiens, 48 hours, N = 3, read-out: Inhibitory Concentration50 CEM-SS Cell Growth
From the text: (§5) Next investigated were the correlations of EL analog structure with anti-HIV-l and anti-cell growth. The experimental method used six serial two-fold dilutions of EL that spanned concentrations above and below a concentration that inhibits HIV-1 plaque count, cell growth (^3 H-TdR uptake into cell DNA) or in vitro PKC activity by 50% (inhibitory concentration50 =IC50) compared to an appropriate mock treated control. Table 7 summarizes data on IC50 of phosphorus and non-phosphorus compounds for HIV-1 plaque formation and cell growth.
formation are x ± one SD., N = 4. CEMSS cell growth is measured in
suspension cultures by treating the cells with compound for 48 hours at
37° C. and then adding 1 μCi of ^3 HTdR (S.A. = 20 Ci/mmole
for 8 hours at 37° C. to measure DNA synthesis. IC50 values
for CEMSS growth are x of a representative experiment, N = 3.

[5] = test system: reverse transcriptase; experiment: Reverse transcriptase activity in HIV-1 infected CEM-SS cells; format: cell-based, human immunodeficiency virus type 1 (HIV-1); conditions: for reverse transcriptase activity: in words; for activity at 0.2 µM / activity at 0.4 µM / activity at 2 µM: Human immunodeficiency virus 1, CEM-SS, read-out: RT Activity, % of Control
Description: as §3, §1

[6] = test system: HIV-1; experiment: HIV-1 plaque assay, inhibitor added 60 minutes after infection; format: cell-based, human immunodeficiency virus type 1 (HIV-1)
From the text: as §2, §3, §4, §5
^1 Serial 2fold dilutions of compounds are used. HIV1 plaque formatio
is measured in CEMSS cell monolayers by having compound present starting
sixty minutes after virus infection. IC50 values for HIV1 plaque
formation are x ± one SD., N = 4. CEMSS cell growth is measured in […]

[7] = test system: K562-4 cells; experiment: Cytostatic activity on K562-4 cells; format: cell-based; conditions: Homo sapiens; K562-4 (printed X562-4)
Description: (§6) All cells were grown in Eagle's minimum essential medium supplemented with 10% fetal bovine serum with the exception of HL-60 and K562-4 cells which were grown in RPMI 1640 medium supplemented with 10% fetal bovine serum. The KB and MH1 C1 cells, from a human nasopharyngeal carcinoma and rat hepatoma, respectively, were from American Type Culture Collection. The ChaGo cells, a human lung carcinoma, was generously provided by Dr. A. H. Tashjian. The human promyeloblastic leukemia cells, K562-4 were kindly supplied by Dr. Bismarck Lozzio. HL-60 cells, a human promyelocytic leukemia, and P388 cells, a mouse leukemia, were obtained from Dr. Y.-C. Cheng. The 77 cells were put into culture by us by excising the 7777, Morris hepatoma from a rat graciously supplied by the late Dr. H. P. Morris.
(§7) Cells were transferred or removed from monolayers for counting after a one or two minute incubation with 0.02% sodium ethylenediamine tetraacetate in phosphate-buffered saline to dislodge the cells. Flasks were seeded at a density of 1×10^3 cells per cm^2 or 2×10^4 per milliliter for suspension cultures. The HL-60 and K562-4 suspension cultures were used about 24 hours after seeding. The compounds to be tested were diluted to various concentrations and added to the monolayer cultures. All of the test compounds were dissolved in 10% dimethyl sulfoxide (DMSO) at concentrations that would give a final DMSO concentration of 0.1%. Control flasks contained 0.1% DMSO. Control cell replication was followed until approximately three doublings had occurred, and then all of the treated cells were counted.

[8] = test system: ChaGo cells; experiment: Cytostatic activity on ChaGo cells; format: cell-based, human
Description: as §6, §7

[9] = test system: 77 cells; experiment: Cytostatic activity on 77 cells; format: cell-based, rat; conditions: for IC50: 77 cells, after controls doubled three times; for 77/KB: ratio of IC50 values ± standard error of the quotient
Description: as §6, §7
(§8) The KB cells represented cells with low alkyl cleavage activity (less than the detectable level of 0.1-0.2 units per milligram protein by our assay procedure) and the 77 cells represented cells similar to normal cells with relatively high alkyl cleavage activity (1.6 units per milligram of protein). Our value for the cleavage activity of cultured 77 cells agrees well with the value of 1.4 units per milligram of protein reported by Soodsma et al, Cancer Res. 30, 309 (1970), for freshly excised 7777 Morris hepatoma tissue. In further confirmation of our assay procedure, we obtained a value of 12.6±4.1 units per milligram of protein in excised rat liver compared to 7.3 units per milligram of protein in rat liver measured by Soodsma et al.

[10] = test system: KB cells; experiment: Cytostatic activity on KB cells; format: cell-based; conditions: Homo sapiens; KB cells, after controls doubled three times; read-out: IC50 KB
Description: as §6, §7, §8

[11] = test system: MH1 C1 cells; experiment: Cytostatic activity on MH1 C1 cells; format: cell-based, rat
Description: as §6, §7

[12] = Human immunodeficiency virus 1, 192 h, day 8
[13] = Human immunodeficiency virus 1, 240 h, day 10
[14] = Human immunodeficiency virus 1, 312 h, day 13

Q: `CCCCCCCCCCCCCCCCCCOCC(COP(=O)([O-])OCC[N+](C)(C)C)OC` (racemic) [ET-18-OMe, (±)-1-O-octadecyl-2-O-methylglycero-3-phosphocholine, reference compound] was tested. Which IC50 ([1]; ET-18-OMe reference run in parallel with the analog of the line, 2880 min, read-out: ID50, ET-18-OMe) did it give?
A: 1900 nM and 2300 nM and 2200 nM

Q: And the “cytotoxic activity against HL60” value ([1]; HL60, in words)?
A: shows an activity that is consistent with previous reports against the cell line tested

Q: And the IC50 ([1]; Homo sapiens, HL-60, 48 h, ET-18-OMe reference run in parallel with the analog of the line, read-out: ID50, ET-18-OMe)?
A: 1700 nM

Q: And the IC50 ([1]; Homo sapiens, HL-60, 48 h, read-out: ID50 (the source's name))?
A: 2500 nM

Q: And the infectious virus production ([2]; 13 days)?
A: infectious virus production is still inhibited

Q: And the activity at 0.2 µM [2, 12]?
A: 395%

Q: What about the activity at 0.4 µM [2, 12] of the same compound?
A: 25%

Q: What about the activity at 2 µM [2, 12] of the same compound?
A: 0%

Q: What about the activity at 0.2 µM [2, 13] of the same compound?
A: 287%

Q: What about the activity at 0.4 µM [2, 13] of the same compound?
A: 30%

Q: And the activity at 2 µM [2, 13]?
A: 33%

Q: And the activity at 0.2 µM [2, 14]?
A: 89%

Q: What about the activity at 0.4 µM [2, 14] of the same compound?
A: 35%

Q: And the activity at 2 µM [2, 14]?
A: 30%

Q: What about the infectious virus production ([2]; between 8 and 10 days) of the same compound?
A: markedly inhibit infectious virus production

Q: What about the inhibition at 0.2 µM ([3]; Human immunodeficiency virus 1, 0.2 μM, 30 minutes before infection, Table 6) of the same compound?
A: 0%

Q: And the inhibition at 0.4 µM ([3]; Human immunodeficiency virus 1, 0.4 μM, 30 minutes before infection, Table 6, read-out: Inhibition (%))?
A: 9%

Q: And the inhibition at 2 µM ([3]; Human immunodeficiency virus 1, 2.0 μM, 30 minutes before infection, Table 6)?
A: 45%

Q: What about the “antiviral activity (HIV-1 plaque formation)” value ([3]; added before or after infection, in words) of the same compound?
A: antiviral activity

Q: What about the IC50 [4] of the same compound?
A: 4400 nM

Q: What about the reverse transcriptase activity ([5]; 13 days) of the same compound?
A: reverse transcriptase activity increases

Q: What about the activity at 0.2 µM ([5]; 192 h, day 8) of the same compound?
A: 54%

Q: What about the activity at 0.4 µM ([5]; 192 h, day 8) of the same compound?
A: 15%

Q: And the activity at 2 µM ([5]; 192 h, day 8)?
A: 6%

Q: And the activity at 0.2 µM ([5]; 240 h, day 10)?
A: 192%

Q: What about the activity at 0.4 µM ([5]; 240 h, day 10) of the same compound?
A: 90%

Q: And the activity at 2 µM ([5]; 240 h, day 10)?
A: 6%

Q: And the activity at 0.2 µM ([5]; 312 h, day 13)?
A: 94%

Q: What about the activity at 0.4 µM ([5]; 312 h, day 13) of the same compound?
A: 161%

Q: What about the activity at 2 µM ([5]; 312 h, day 13) of the same compound?
A: 174%

Q: And the reverse transcriptase activity ([5]; between 8 and 10 days)?
A: markedly inhibit infectious virus production and reverse transcriptase activity in a dose-dependent manner

Q: And the anti-HIV-1 activity ([6]; HIV-1 plaque formation, in words)?
A: potent anti-HIV activity

Q: What about the inhibition at 2 µM ([6]; Human immunodeficiency virus 1, 1 h) of the same compound?
A: 64%

Q: And the inhibition at 0.2 µM ([6]; Human immunodeficiency virus 1, 1 h, 0.2 μM, 60 minutes after infection)?
A: 0%

Q: What about the inhibition at 0.4 µM ([6]; Human immunodeficiency virus 1, 1 h, 0.4 μM, 60 minutes after infection) of the same compound?
A: 0%

Q: And the IC50 ([6]; Human immunodeficiency virus 1, CEM-SS monolayers, compound from sixty minutes after infection, N = 4, read-out: Inhibitory Concentration50 HIV-1 Plaque Formation)?
A: 1400 ± 450 nM

Q: What does the source list for `CCCCCCCCCCCCCCCCCCOCC(O)C[N+](C)(C)CCO.[I-]` (racemic) [X, (±)-3-octadecyloxy-2-hydroxy-N,N-dimethyl-N-β-hydroxyethyl-1-propyl ammonium iodide]?
A: IC50 [7]: 2500 nM; IC50 [8]: 2800 nM; IC50 ([8]; Homo sapiens): 1700 nM; IC50 [9]: 1330 ± 400 nM; 77/KB [9]: 2.9 ± 0.96; IC50 [10]: 350 ± 50 nM

Q: How did the IC50 [7] turn out when `CCCCCCCCCCCCCCCCOCC(C[N+](C)(C)CCO)OC(C)=O.[I-]` (racemic) [XI, (±)-3-hexadecyloxy-2-acetoxy-N,N-dimethyl-N-β-hydroxyethyl-1-propyl ammonium iodide] was run?
A: 3500 nM

Q: What about the IC50 ([8]; Homo sapiens) of the same compound?
A: 1200 nM

Q: What about the IC50 [9] of the same compound?
A: 1350 ± 640 nM

Q: What about the 77/KB [9] of the same compound?
A: 3.1 ± 1.51

Q: What about the IC50 [10] of the same compound?
A: 430 ± 50 nM

Q: How did the “sensitivity of MH1 C1 cells relative to 77 cells” value ([11]; MH1 C1 vs 77 cells) turn out when `CCCCCCCCCCCCCCCCCCOCCC[N+](C)(C)CCO.[I-]` [XIII, 3-octadecyloxy-N,N-dimethyl-N-β-hydroxyethyl-1-propyl ammonium iodide] was run?
A: two to three times less sensitive to growth inhibition than 77 cells

Q: What about the IC50 ([11]; Rattus norvegicus, MH1C1, MH1 C1) of the same compound?
A: 2900 nM

Q: What about the IC50 [7] of the same compound?
A: 1400 nM

Q: And the IC50 [9]?
A: 2500 ± 900 nM

Q: And the 77/KB [9]?
A: 4.3 ± 1.60

Q: And the IC50 [10]?
A: 700 ± 80 nM
